Source: PubChem BioAssay (NCI)
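48-hour exposure; five concentrations; linearly interpolated endpoints. TGI marks complete inhibition of growth.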

Legend:
Experiment in all cases: inhibition of tumour cell growth, NCI panel, 48 h
[1] = test system: KM12 colon
[2] = test system: U251 CNS
[3] = test system: SW-620 colon
[4] = test system: SK-MEL-28 melanoma
[5] = test system: COLO 205 colon
[6] = test system: SF-295 CNS
[7] = test system: DU-145 prostate
[8] = test system: T-47D breast
[9] = test system: RPMI-8226 leukemia
[10] = test system: UACC-62 melanoma
[11] = test system: TK-10 renal
[12] = test system: M14 melanoma
[13] = test system: RXF 393 renal
[14] = test system: UO-31 renal
[15] = test system: EKVX NSCLC
[16] = test system: 786-0 renal
[17] = test system: UACC-257 melanoma
[18] = test system: BT-549 breast
[19] = test system: LOX IMVI melanoma
[20] = test system: OVCAR-8 ovarian

| Structure (SMILES) | TGI [1] [µM] | TGI [2] [µM] | TGI [3] [µM] | TGI [4] [µM] | TGI [5] [µM] | TGI [6] [µM] | TGI [7] [µM] | TGI [8] [µM] | TGI [9] [µM] | TGI [10] [µM] | TGI [11] [µM] | TGI [12] [µM] | TGI [13] [µM] | TGI [14] [µM] | TGI [15] [µM] | TGI [16] [µM] | TGI [17] [µM] | TGI [18] [µM] | TGI [19] [µM] | TGI [20] [µM] |
| --- | --- | --- | --- | --- | --- | --- | --- | --- | --- | --- | --- | --- | --- | --- | --- | --- | --- | --- | --- | --- |
| NS(=O)(=O)c1nnc(NC(=O)c2cccc([N+](=O)[O-])c2)s1 | > 100 | > 100 | > 100 | > 100 | > 100 | > 100 | > 100 | > 100 | > 100 | > 100 | > 100 | > 100 | > 100 | > 100 | > 100 | > 100 | > 100 | > 100 | > 100 | > 100 |
| CC(C)CC1c2[nH]c3ccccc3c2C[C@H]2C(=O)NC(CCCCNC(=O)OC(C)(C)C)C(=O)N12 (some centres undefined) | > 100 | > 100 | > 100 | > 100 | 72.2 | 40.9 | > 100 | 16.1 | 58.5 | > 100 | > 100 | > 100 | 27.3 | > 100 | > 100 | 50.7 | > 100 | 95.5 | > 100 | > 100 |
| CN1N=C(c2ccccc2)C(C(c2ccccc2[N+](=O)[O-])C2C(=O)N(C)N=C2c2ccccc2)C1=O (centres undefined) | > 100 | > 100 | > 100 | > 100 | > 100 | > 100 | > 100 | > 100 | > 100 | > 100 | > 100 | > 100 | > 100 | > 100 | > 100 | > 100 | > 100 | > 100 | 77.4 | > 100 |
| NC(N)=NS(=O)(=O)c1ccc(NNC(=O)c2cccc3c(=O)c4ccccc4[nH]c23)cc1 | 57 | > 100 | > 100 | 65.9 | 54.7 | > 100 | > 100 | 59.2 | > 100 | 88.9 | 94 | 34.9 | 77.2 | 50.4 | 62.2 | > 100 | 74.8 | 73.6 | 47.7 | 59.4 |
| CCN(CC)CCCNc1ccc([N+](=O)[O-])c2nc3ccc(OC)cc3c(N)c12 | 3.16 | > 10 | 3.11 | > 10 | 2.67 | 3.64 | > 4.96 | > 10 | 4.81 | > 10 | > 10 | > 6.1 | > 10 | > 10 | > 10 | 2.9 | > 10 | 2.9 | 3.37 | 5.6 |
| CC(=O)C1(C)CC(C#N)(C#N)C(C#N)=C1N (centres undefined) | > 100 | > 100 | > 100 | – | > 100 | > 100 | > 100 | > 100 | > 100 | > 100 | > 100 | > 100 | > 100 | > 100 | 85.2 | > 100 | > 100 | > 100 | > 100 | > 100 |
